Experimental data as given in BigSolDB 2.1.

Cc1ccc(-c2ccccc2C#N)cc1
solubility (mole fraction)
Conditions	268.05 K	272.97 K	278.05 K	283.15 K	288.15 K	293.15 K	298.13 K	303.05 K
in ethanol	0.0142	0.0159	0.0168	0.0205	0.0284	0.041	0.0604	0.0958
in ethyl acetate	0.163	0.196	0.237	0.284	0.341	0.412	0.482	0.569
